Eight compounds from patent US20240226130A1, “4'-THIONUCLEOSIDE ANALOGUES AND THEIR PHARMACEUTICAL USE” (Gilead Sciences, Inc., priority 2022, published 2024) can be followed below.

Where two headings read alike, the source gives them in different places.

The test system of one data set is HIV-1 (IIIB). The data set is described as follows: Antiviral (HIV) assay in MT-4 cells. The format is cell-based. The conditions noted are these: read-out: MT4 HIV EC50. On the procedure: Example 9: Antiviral (HIV) Assay in MT-4 Cells
Compounds were tested in a high-throughput 384-well assay format for their ability to inhibit the replication of HIV-1 (IIIB) in MT-4 cells. Compounds were serially diluted (1:3) in DMSO on 384-well polypropylene plates and further diluted 200-fold into complete RPMI media (10% FBS, 1% P/S) using the Biotek Micro Flow and Labcyte ECHO acoustic dispenser. Each plate contained up to 8 test compounds, with negative (no drug) and positive (5 μM AZT) controls. MT-4 cells were pre-treated with 10 μL of either RPMI (mock-infected) or a fresh 1:250 dilution of HIV-1 IIIB concentrated virus stock. Infected and uninfected MT-4 cells were further diluted in complete RPMI media and added to each plate using a Micro Flow dispenser. After 5 days incubation in a humidified and temperature-controlled incubator (37° C.), Cell Titer Glo (Promega) was added to the assay plates and chemiluminescence read using an Envision plate-reader. EC50 values were defined as the compound concentration that causes a 50% decrease in luminescence signal and were calculated using a sigmoidal dose-response model to generate curve fits and are shown in Table 1.

A short description of data set [1]: Cytotoxicity assay in MT-4 cells. The format is cell-based. The conditions noted are these: human, uninfected MT-4 cells, read-out: MT4 CC50. As to the method:
Example 10: Cytotoxicity Assay in MT-4 Cells
Assays were performed as described in Example 9 except uninfected MT-4 cells were added to each well containing test compound. In addition, 10 μM puromycin was added to the last column of each assay plate to assess a base level of cytotoxicity.

Data set [2] in a line: Rhesus pharmacokinetic study, intravenous compound 7 (plasma and PBMC). The note with it: for Intracellular concentration in PBMC: LOQ 2.5 μM compound 7, 0.63 μM triphosphate. On the procedure:
Male Indian Origin Rhesus Monkeys were used for the pharmacokinetic studies. Studies were conducted under a protocol approved by IACUC. […] The intravenous dose was administered as an approximately 30-minute infusion, and after dose administration the dose apparatus was flushed with approximately 1 mL saline before removal from the animal. Food was returned 4 hours after dosing. […] The K2EDTA tubes were kept chilled at approximately 5° C. until centrifugation (4° C., 5 minutes, 2000×g) to collect plasma. Centrifugation began within 1 hour of collection. Plasma samples were harvested, placed in micronic tubes, and maintained on dry ice prior to storage at −70° C. until analysis by LC-MS/MS. […] The sodium citrate tubes were then gently inverted 3-4 times and stored upright at ambient temperature until centrifugation to collect PBMCs. Centrifugation began as soon as possible following collection, within 6 hours after collection. The PBMCs were separated by centrifugation (30 minutes at 1500×g-1800×g, 18-20° C.), washed once with ice cold 0.9% NaCl and treated with red blood cell lysis buffer (3.5 g ammonium chloride and 0.036 g ammonium carbonate in 500 mL ultrapure water, prepared before first blood collection) for 10 minutes at ambient temperature. Subsequently the cells were washed twice with ice cold 0.9% NaCl, the cell pellet resuspended in ice cold RIPA buffer (fortified with Pierce protease ad phosphatase inhibitor tablet), snap frozen in liquid nitrogen, and maintained at −70° C. until analysis by LC-MS/MS.

Data set [3] can be described thus: Rhesus pharmacokinetic study, oral compound 7 (plasma and PBMC). The conditions noted are these: for Intracellular concentration in PBMC: LOQ 0.16 μM compound 7, 0.04 μM triphosphate. As to the method: The oral dose was administered via oral gavage, and after dose administration the dose apparatus was flushed with approximately 10 mL water before removal from the animal. Food was returned 4 hours after dosing. […] The K2EDTA tubes were kept chilled at approximately 5° C. until centrifugation (4° C., 5 minutes, 2000×g) to collect plasma. Centrifugation began within 1 hour of collection. Plasma samples were harvested, placed in micronic tubes, and maintained on dry ice prior to storage at −70° C. until analysis by LC-MS/MS. […] The sodium citrate tubes were then gently inverted 3-4 times and stored upright at ambient temperature until centrifugation to collect PBMCs. Centrifugation began as soon as possible following collection, within 6 hours after collection. The PBMCs were separated by centrifugation (30 minutes at 1500×g-1800×g, 18-20° C.), washed once with ice cold 0.9% NaCl and treated with red blood cell lysis buffer (3.5 g ammonium chloride and 0.036 g ammonium carbonate in 500 mL ultrapure water, prepared before first blood collection) for 10 minutes at ambient temperature. Subsequently, the cells were washed twice with ice cold 0.9% NaCl and the cell pellet maintained at −70° C. until analysis by LC-MS/MS.

Setting [4] is: Human immunodeficiency virus 1, IIIB, MT4, 120 h.
Setting [5] is: Human immunodeficiency virus 1, MT4, 120 h, HIV-1 IIIB in MT-4 cells, 5 days, Cell Titer Glo.
Where [6] appears, read: male, Indian Origin, rhesus monkey, plasma, iv, 1 mg/kg.
[7] abbreviates: male, Indian Origin, rhesus monkey, peripheral blood mononuclear cells (PBMC), po, 7.5 mg/kg.
The mark [8] stands for this setting: male, Indian Origin, rhesus monkey, plasma, po, 7.5 mg/kg.

The EC50 is the concentration needed to bring the measured effect to its halfway point. By CC50 is commonly meant the concentration giving 50% cytotoxicity. In the case of `C#C[C@]1(CO[P@@](=O)(N[C@@H](C)C(=O)OCC(CC)CC)Oc2ccccc2)S[C@@H](n2cnc3c(N)nc(N)nc32)C[C@@H]1O` [Compound 6, 2-Ethylbutyl ((S)-(((2R,3S,5R)-5-(2,6-diamino-9H-purin-9-yl)-2-ethynyl-3-hydroxytetrahydrothiophen-2-yl)methoxy)(phenoxy)phosphoryl)-L-alaninate], the 50% effective concentration (EC50) with HIV-1 (IIIB) (setting [4]) is 0.026 µM. In data set [1], the CC50 at 5 days is more than 25 µM.
Regarding `C#C[C@]1(CO)S[C@@H](n2cnc3nc(N)nc(NC4CC4)c32)C[C@@H]1O` [Compound 3, (2R,3S,5R)-5-(2-Amino-6-(cyclopropylamino)-7H-purin-7-yl)-2-ethynyl-2-(hydroxymethyl)tetrahydrothiophen-3-ol], in the data set on HIV-1 (IIIB) (setting [5]), the concentration giving a half-maximal response (EC50) was more than 25 µM. Further, the CC50 at 5 days in data set [1] was more than 25 µM.
As for `C#C[C@]1(CO)S[C@@H](n2cnc3c(OCC)nc(N)nc32)C[C@@H]1O` [Compound 4, (2R,3S,5R)-5-(2-Amino-6-ethoxy-9H-purin-9-yl)-2-ethynyl-2-(hydroxymethyl)tetrahydrothiophen-3-ol], in the data set with HIV-1 (IIIB) (setting [5]), the concentration for a half-maximal effect (EC50) is 0.477 µM. Also, the CC50 at 5 days in data set [1] amounted to 23 µM.
The like results for `C#C[C@]1(CO)S[C@@H](n2cnc3c(N)nc(N)nc32)C[C@@H]1O` [Compound 1, (2R,3S,5R)-5-(2,6-Diamino-9H-purin-9-yl)-2-ethynyl-2-(hydroxymethyl)tetrahydrothiophen-3-ol] were, in that order, 0.683 µM and more than 25 µM.
For `C#C[C@]1(CO)S[C@@H](n2cnc3nc(N)nc(OCC)c32)C[C@@H]1O` [Compound 5, (2R,3S,5R)-5-(2-Amino-6-ethoxy-7H-purin-7-yl)-2-ethynyl-2-(hydroxymethyl)tetrahydrothiophen-3-ol], in the data set with HIV-1 (IIIB) (setting [5]), the EC50 is more than 5 µM. The CC50 at 5 days in data set [1] was more than 25 µM.
The like results for `C#C[C@]1(CO)S[C@@H](n2cnc3c(NC4CC4)nc(N)nc32)C[C@@H]1O` [Compound 2, (2R,3S,5R)-5-(2-Amino-6-(cyclopropylamino)-9H-purin-9-yl)-2-ethynyl-2-(hydroxymethyl)tetrahydrothiophen-3-ol] were, in that order, 4.52 µM and more than 25 µM.
Broadly, the half-life is the time in which the quantity being followed falls by half. Usually AUC(0-t) stands for exposure summed from dosing to a finite time, without extrapolation to infinity. A low value points to less exposure. For orientation: Cmax means the highest concentration seen after dosing. For the compound `C#C[C@]1(CO)S[C@@H](n2cc(F)c(N)nc2=O)C[C@@H]1O` [Compound 7, 4-Amino-1-((2R,4S,5R)-5-ethynyl-4-hydroxy-5-(hydroxymethyl)tetrahydrothiophen-2-yl)-5-fluoropyrimidin-2(1H)-one], in the data set with HIV-1 (IIIB) (setting [5]), the half-maximal effective concentration (EC50) stood at 0.018 µM. In data set [1], the CC50 at 5 days was 24 µM. The “Intracellular concentration in PBMC” value in data set [2] (12 hr after intravenous 1 mg/kg compound 7), in data set [2] (24 hr after intravenous 1 mg/kg compound 7), in data set [2] (48 hr after intravenous 1 mg/kg compound 7), in data set [2] (72 hr after intravenous 1 mg/kg compound 7), in data set [2] (144 hr after intravenous 1 mg/kg compound 7) and in data set [2] (168 hr after intravenous 1 mg/kg compound 7) was “BLQ” in each case. Moreover, the “Intracellular concentration in PBMC” value in data set [3] (48 hr after oral 7.5 mg/kg compound 7), in data set [3] (72 hr after oral 7.5 mg/kg compound 7), in data set [3] (120 hr after oral 7.5 mg/kg compound 7) and in data set [3] (168 hr after oral 7.5 mg/kg compound 7) was “BLQ” in each case. Further, the half-life is 50 ± 26.4 h in data set [2] (male, Indian Origin, rhesus monkey, in vivo, iv, 1 mg/kg) and 25.1 ± 16.3 h in data set [3] (male, Indian Origin, rhesus monkey, in vivo, po, 7.5 mg/kg). Further, the AUC(0-t) was 14.6 ± 3.01 µM·h in data set [2] (setting [6]) and 20.1 ± 14.9 µM·h in data set [3] (setting [8]). For the same compound, the maximum concentration (Cmax) in data set [2] (setting [6]) was 3770 ± 310 nM; in data set [3] (setting [8]) it was 1500 ± 350 nM. In data set [3] (setting [7]), this compound came in with a concentration at 12 h of 560 ± 30 nM. Moreover, in data set [3] (setting [7]), the concentration at 24 h was found to be 370 ± 200 nM.
Regarding `C#C[C@]1(CO[P@@](=O)(N[C@@H](C)C(=O)OCC(CC)CC)Oc2ccccc2)S[C@@H](n2cc(F)c(N)nc2=O)C[C@@H]1O` [Compound 9, 2-Ethylbutyl ((S)-(((2R,3S,5R)-5-(4-amino-5-fluoro-2-oxopyrimidin-1(2H)-yl)-2-ethynyl-3-hydroxytetrahydrothiophen-2-yl)methoxy)(phenoxy)phosphoryl)-L-alaninate], in the data set on HIV-1 (IIIB) (setting [4]), the EC50 worked out at 0.145 µM. Besides, the CC50 at 5 days in data set [1] came to 23.2 µM.
